Reference: patent US7906525B2, “Reduction of imiquimod impurities at four months using refined oleic acid” (priority 2004, dated 2011)
Values after ≈ are worked out from the molar mass of the structure shown.

Test: Solubility in water
Type: physicochemical

Work on `CC(C)Cn1cnc2c(N)nc3ccccc3c21` [imiquimod, 1-(2-methylpropyl)-1H-imidazo[4,5-c]quinolin-4-amine] yielded a solubility of 0.79 µg/mL (≈ 3.29 µM).
